Results from ChEMBL document CHEMBL3886157, “Heterocyclic carboxamides as modulators of kinase activity” (2015).

Assays:
[1] = biological target: Ribosomal protein S6 kinase beta-1 (Homo sapiens, UniProt P23443, T412E); assay: P70S6K Enzyme Assay: P70S6K inhibitor compounds are diluted and plated in 96 well plates. A reaction mixture including the following components is then added to the compound plate to initiate the enzyme reaction; P70S6K (3 nM, T412E mutant, Millipore) is mixed with 24 uM ATP in an assay buffer containing 100 mM Hepes (pH 7.5), 5 mM MgCl2, 1 mM DTT, 0.015% Brij and 1 uM of the substrate peptide FITC-AHA-[…]-OH (derived from the S6 ribosomal protein sequence, FITC=fluorescein isothiocyanate, AHA=6-aminohexanoic acid). The reaction is incubated for 90 min at 25° C., before the addition of 10 mM EDTA to stop the reaction. The proportion of substrate and product (phosphorylated) peptide is analysed on a Caliper Life Sciences Lab Chip 3000, using a pressure of -1.4 psi, and upstream and downstream voltages of -3000 and -700 respectively. Product peaks are resolved before substrate peaks on the resulting chromatograms.
[2] = biological target: RAC-alpha serine/threonine-protein kinase (Homo sapiens, UniProt P31749); assay: AKT Enzyme Assay: A TTP Mosquito liquid handling instrument is used to place […] of the appropriate concentration of inhibitor in 100% DMSO (for a dose response curve calculation) into each well of a 384-well plate. To this reaction components are added to a final volume of 12.50 0.1 ng/uL His-AKT (Full Length), (Invitrogen, Part # P2999, Lot #641228C). 160 uM ATP (Fluka, 02055) 1 mM DTT (Sigma, D0632) 1 mM MgCl2 (Sigma, M1028) 1 uM substrate peptide (sequence FITC-AHA-[…]-NH2), synthesized by Tufts Peptide Synthesis service. 100 mM HEPES pH 7.5 (Calbiochem, 391338) 0.015% Brij-35 (Sigma, B4184)The reaction is incubated for 90 min at 25° C, and then stopped by the addition of 70 ul of Stop buffer (100 mM HEPES pH 7.5, 0.015% Brij-35, 10 mM EDTA (Sigma, E7889)).The plate is read on a Caliper LC 3000 in an Off-Chip mobility shift assay format, using the following parameters for a 12-sipper chip: screening pressure -2.3 psi, upstream voltage -500, and downstream voltage -3000.
RAC-alpha serine/threonine-protein kinase, sequence (P31749 whole entry): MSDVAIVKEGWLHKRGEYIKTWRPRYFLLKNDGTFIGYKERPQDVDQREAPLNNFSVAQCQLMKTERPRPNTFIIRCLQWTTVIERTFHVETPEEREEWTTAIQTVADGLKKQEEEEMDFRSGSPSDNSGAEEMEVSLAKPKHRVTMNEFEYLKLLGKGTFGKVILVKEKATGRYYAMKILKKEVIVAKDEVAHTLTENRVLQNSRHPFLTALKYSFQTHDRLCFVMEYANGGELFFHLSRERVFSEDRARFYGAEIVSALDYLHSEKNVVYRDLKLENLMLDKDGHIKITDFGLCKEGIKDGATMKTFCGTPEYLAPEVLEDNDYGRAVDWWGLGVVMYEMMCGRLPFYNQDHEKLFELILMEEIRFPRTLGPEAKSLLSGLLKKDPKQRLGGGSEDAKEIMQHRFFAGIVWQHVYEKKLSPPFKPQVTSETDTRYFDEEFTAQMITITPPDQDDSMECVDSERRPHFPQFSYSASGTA

Ribosomal protein S6 kinase beta-1, sequence (P23443 whole entry T412E): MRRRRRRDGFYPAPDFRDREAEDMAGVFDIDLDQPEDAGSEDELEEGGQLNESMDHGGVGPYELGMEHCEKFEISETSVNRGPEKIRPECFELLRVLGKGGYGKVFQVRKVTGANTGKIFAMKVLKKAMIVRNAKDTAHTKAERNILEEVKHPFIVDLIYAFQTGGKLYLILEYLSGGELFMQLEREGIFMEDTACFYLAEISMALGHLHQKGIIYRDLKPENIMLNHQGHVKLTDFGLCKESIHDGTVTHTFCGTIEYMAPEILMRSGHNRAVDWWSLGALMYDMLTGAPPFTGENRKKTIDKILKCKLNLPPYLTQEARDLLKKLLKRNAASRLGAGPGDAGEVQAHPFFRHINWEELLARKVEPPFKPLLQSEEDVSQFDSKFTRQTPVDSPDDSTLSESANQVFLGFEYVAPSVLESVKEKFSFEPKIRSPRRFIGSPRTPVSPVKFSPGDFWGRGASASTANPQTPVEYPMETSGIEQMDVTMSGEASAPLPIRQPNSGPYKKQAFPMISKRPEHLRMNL

**Q.** What does the source list for `NC(=O)c1ccc(NCCc2ccc(Cl)c(Cl)c2)c2cncnc12`?
**A.** IC50 [1]: 98 nM; IC50 [2]: > 100 µM

**Q.** `NC(=O)c1ccc(N2CCN(c3ccc(Cl)c(Cl)c3)CC2)c2cncnc12` was tested. Which IC50 [1] did it give?
**A.** > 100000 nM

**Q.** What about the IC50 [2] of the same compound?
**A.** > 100 µM

**Q.** For `NC(=O)c1ccc(NCc2ccccc2)c2cncnc12`, which IC50 [1] is on record?
**A.** 690 nM

**Q.** And the IC50 [2]?
**A.** 57 µM

**Q.** For `CNC[C@@H](Nc1ccc(C(N)=O)c2ncncc12)c1cccc(F)c1`, which IC50 [1] is on record?
**A.** > 1000 nM

**Q.** With `NC(=O)c1ccc(NC(=O)C2CNC[C@@H]2c2cccc(F)c2)c2cccnc12` (some centres not stated) as the compound, how does the IC50 [1] read?
**A.** > 1000 nM

**Q.** `CN(Cc1ccc(Cl)c(Cl)c1)C1CCN(c2ccc(C(N)=O)c3ncncc23)C1` (racemic) was tested. Which IC50 [1] did it give?
**A.** 570 nM

**Q.** With `NC(=O)c1ccc(NCC(c2ccccc2)N2CCNCC2)c2cncnc12` (racemic) as the compound, how does the IC50 [1] read?
**A.** 170 nM

**Q.** Which IC50 [1] does the source give for `NC(=O)c1ccc(N2CCC(N)(C(=O)Nc3ccc(F)c(C(F)(F)F)c3)C2)c2cncnc12` (racemic) here?
**A.** 270 nM

**Q.** `NC(=O)c1ccc(N2CCC(NCc3ccc(Cl)c(Cl)c3)C2)c2cncnc12` (racemic) was tested. Which IC50 [1] did it give?
**A.** 490 nM
